US9120753B2, “Phenol derivatives and pharmaceutical or cosmetic use thereof” (GALDERMA RESEARCH & DEVELOPMENT, priority 2009, dated 2015)
pKd: −log10 of the molar value.

What was measured:
[1] = target: T1, AR receptor (Homo sapiens, UniProt P10275); assay: transactivation test in PALM (PC3 Androgen receptor Luciferase MMTV) cell line, cross curves against methyltrienolone; type: cell-based; conditions: cross curves vs reference agonist methyltrienolone, read-out: Kdapp (apparent dissociation constant)
T1 construct: expressed in transfected cells; host or cells: PALM (PC3 stably transfected with PMMTV-neo-Luc and pSG5puro-AR)
T1 sequence (P10275 1-920): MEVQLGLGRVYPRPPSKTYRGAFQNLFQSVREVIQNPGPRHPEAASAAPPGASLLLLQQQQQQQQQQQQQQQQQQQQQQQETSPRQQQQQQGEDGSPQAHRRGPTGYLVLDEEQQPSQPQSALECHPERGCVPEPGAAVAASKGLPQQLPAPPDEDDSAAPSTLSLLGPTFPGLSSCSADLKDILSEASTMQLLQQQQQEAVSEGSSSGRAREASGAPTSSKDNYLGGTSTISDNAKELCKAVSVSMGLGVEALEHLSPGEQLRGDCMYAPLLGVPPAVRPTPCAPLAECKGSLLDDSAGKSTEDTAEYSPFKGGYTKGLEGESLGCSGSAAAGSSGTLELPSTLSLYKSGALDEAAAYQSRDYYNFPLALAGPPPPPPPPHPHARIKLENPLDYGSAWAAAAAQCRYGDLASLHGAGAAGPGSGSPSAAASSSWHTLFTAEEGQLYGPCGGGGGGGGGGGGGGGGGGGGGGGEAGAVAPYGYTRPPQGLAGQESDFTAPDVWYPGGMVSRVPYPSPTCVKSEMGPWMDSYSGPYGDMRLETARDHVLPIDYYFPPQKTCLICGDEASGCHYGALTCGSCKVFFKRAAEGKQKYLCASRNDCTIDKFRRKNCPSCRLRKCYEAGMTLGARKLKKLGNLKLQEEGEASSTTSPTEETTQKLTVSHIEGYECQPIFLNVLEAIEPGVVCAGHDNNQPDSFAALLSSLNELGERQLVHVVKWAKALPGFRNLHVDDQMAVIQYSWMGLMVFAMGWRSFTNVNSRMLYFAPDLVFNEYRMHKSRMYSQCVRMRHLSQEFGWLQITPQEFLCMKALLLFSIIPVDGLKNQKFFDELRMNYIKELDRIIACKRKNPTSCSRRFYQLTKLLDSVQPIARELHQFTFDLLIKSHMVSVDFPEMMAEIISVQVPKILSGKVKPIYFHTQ
Procedure: The compounds according to the invention show inhibitory properties on receptors of AR type. This AR receptor-inhibiting activity is measured in a transactivation test through the KdR (resting), KdA (active) and Kdapp (apparent) dissociation constants according to the method set out in J. Molecular Biology (1965), 12(1), 88-118, Monod J. et al.
The expression “AR-type receptor inhibitor” means, according to the invention, any compound which has a Kdapp dissociation constant of less than or equal to 1 μM, and a KdR/Kda ratio ≦10, in a transactivation test.
The transactivation test is carried out in the PALM (PC3 Androgen receptor Luciferase MMTV) cell line which is a stable transfectant containing the PMMTV-neo-Luc (reporter gene) and pSG5puro-AR plasmids.
In this study, the affinity of each product for the 2 receptor states (KdR and KdA) is determined, as is an apparent Kd (Kdpp). This constant is a result of the 2 Kd, but also depends on the initial equilibrium of the receptor between the active state and the resting state (L0) and on its expression level. It is determined by means of the following formula: 1/KdApp=(L0/(1+L0))x(1/KdR)+(1/(1+L0))x(1/KdA)
To determine these constants, “cross curves” of the test product against a reference agonist, methyltrienolone, are produced in 96-well plates. The test product is used at 10 concentrations and the reference agonist at 7 concentrations.

CCC(Nc1cncc(Br)c1)c1ccccc1O (stereo not drawn) [Compound 9, 2-[1-(5-Bromopyridin-3-ylamino)propyl]phenol]
pKd [1]: 7.22

Cc1cncc(NCc2ccccc2O)c1 [Compound 14, 2-[(5-Methylpyridin-3-ylamino)methyl]phenol]
pKd [1]: 7.82

Oc1cccc(F)c1CNc1cncc(Br)c1 [Compound 2, 2-[(5-Bromopyridin-3-ylamino)methyl]-3-fluorophenol]
pKd [1]: 8.30

N#Cc1cncc(NCc2ccccc2O)c1 [Compound 4, 5-(2-Hydroxybenzylamino)nicotinonitrile]
pKd [1]: 6.70

Oc1ccccc1CNc1cncc(Br)c1 [Compound 1, 2-[(5-Bromopyridin-3-ylamino)methyl]phenol]
melting point: 184 °C | pKd [1]: 8.22
